Assay results: patent US20230365627A1, “MACROCYCLIC PEPTIDE BORONATE IMMUNOMODULATORS” (Bristol-Myers Squibb Company, priority 2020, published 2023)
*1 amine or outer side, *2 acyl side, *3 side chain or, on linkers, in order; H or OH if unused. Where a SMILES comes first, the peptide text is derived from it. Bridges are numbered along the chain shown (N, C = ends). [ ]: non-standard residue; d: D form. X23 = O=C([C@H](CN1Cc2ccc(cc2)B2O[C@@H]([C@H](O)[C@@H](C(O)CO)O2)[C@H](O)C1)N[*:1])[*:2]; X12 = O=C([C@H](CN1Cc2ccccc2B2O[C@@H]([C@H](O)[C@@H](C(O)CO)O2)[C@H](O)C1)N[*:1])[*:2]; X13 = O=C([C@H](CCNC[C@@H](O)[C@@H](O)[C@H](O)[C@H](O)C(O)CO)N[*:1])[*:2]; Trp(1-CH2CO) = O=C([C@H](Cc1cn(CC(=O)[*:3])c2ccccc12)N[*:1])[*:2]; Trp(1-CH2COOH) = N[C@@H](Cc1cn(CC(=O)O)c2ccccc12)C(=O)O; X30 = O=C([C@H](CNCc1ccc(B(O)O)cc1C(F)(F)F)N[*:1])[*:2]; X4 = O=C([C@H](CNCc1cc(Cl)ccc1B(O)O[*:3])N[*:1])[*:2]; X3 = O=C([C@H](CNCc1ccc(B(O)O[*:3])cc1F)N[*:1])[*:2]; X32 = O=C([C@H](CNCc1ccc(B(O)O[*:3])cc1)N[*:1])[*:2]; X11 = COc1ccc(CNCC[C@H](N[*:1])C(=O)[*:2])cc1B(O)O; X27 = O=C([C@H](CNCc1ccccc1B(O)O[*:3])N[*:1])[*:2]; X10 = COc1ccc(CNC[C@H](N[*:1])C(=O)[*:2])cc1B(O)O; Hyp = O=C(O)[C@@H]1C[C@@H](O)CN1; NMeNle = CCCC[C@H](NC)C(=O)O; NMeA = CN[C@@H](C)C(=O)O; Dab = NCC[C@H](N)C(=O)O

The molecules below were run against PD-1/PD-L1 (Homo sapiens (Human), UniProt Q9NZQ7) (assay: PD-1/PD-L1 Homogenous Time-Resolved Fluorescence (HTRF) binding assay). Settings: not given.
Excerpt: Methods for Testing the Ability of Macrocyclic Peptides to Compete for the Binding of PD-1 to PD-L1 Using Homogenous Time-Resolved Fluorescence (HTRF) Binding Assays
The ability of the compounds of formula (I) to bind to PD-L1 was investigated using a PD-1/PD-L1 Homogenous Time-Resolved Fluorescence (HTRF) binding assay.
Homogenous Time-Resolved Fluorescence (HTRF) Binding Assay
The interaction of PD-1 and PD-L1 can be assessed using soluble, purified preparations of the extracellular domains of the two proteins. The PD-1 and PD-L1 protein extracellular domains were expressed as fusion proteins with detection tags, for PD-1, the tag was the Fc portion of Immunoglobulin (PD-1-Ig) and for PD-L1 it was the 6 histidine motif (PD-L1-His). All binding studies were performed in an HTRF assay buffer consisting of dPBS supplemented with 0.1% […] bovine serum albumin and 0.05% (v/v) Tween-20. For the h/PD-L1-His binding assay, inhibitors were pre-incubated with PD-L1-His (10 nM final) for 15 m in 4 μl of assay buffer, followed by addition of PD-1-Ig (20 nM final) in 1 μl of assay buffer and further incubation for 15 m. HTRF detection was achieved using europium cryptate-labeled anti-Ig (1 nM final) and allophycocyanin (APC) labeled anti-His (20 nM final). Antibodies were diluted in HTRF detection buffer and 5 μl was dispensed on top of the binding reaction. The reaction mixture was allowed to equilibrate for 30 minutes and the resulting signal (665 nm/620 nm ratio) was obtained using an EnVision fluorometer. Additional binding assays were established between the human proteins PD-1-Ig/PD-L2-His (20 & 5 nM, respectively) and CD80-His/PD-L1-Ig (100 & 10 nM, respectively).
Recombinant Proteins: Human PD-1 (25-167) with a C-terminal human Fc domain of immunoglobulin G (Ig) epitope tag [hPD-1 (25-167)-3S-IG] and human PD-L1 (18-239) with a C-terminal His epitope tag [hPD-L1(18-239)-TVMV-His] were expressed in HEK293T cells and purified sequentially by ProteinA affinity chromatography and size exclusion chromatography. Human PD-L2-His and CD80-His was obtained through commercial sources.
Table 1 lists the IC50 values for representative examples of this disclosure measured in the PD-1/PD-L1 Homogenous Time-Resolved Fluorescence (HTRF) binding assay.

PD-1/PD-L1, sequence (Q9NZQ7 18-239): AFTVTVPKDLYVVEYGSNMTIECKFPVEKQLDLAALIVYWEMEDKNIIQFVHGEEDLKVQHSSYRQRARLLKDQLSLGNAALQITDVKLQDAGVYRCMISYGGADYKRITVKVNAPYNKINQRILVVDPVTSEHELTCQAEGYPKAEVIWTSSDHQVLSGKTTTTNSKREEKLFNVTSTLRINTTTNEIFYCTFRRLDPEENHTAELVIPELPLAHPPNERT

Compound | IC50 [nM]
CCCC[C@H]1C(=O)N(C)[C@@H](CCCC)C(=O)N[C@@H](CC(C)C)C(=O)N[C@H](C(=O)NCC(N)=O)CSCC(=O)N[C@@H](Cc2ccc(O)cc2)C(=O)N(C)[C@@H](C)C(=O)N[C@@H](CC(N)=O)C(=O)N2CCC[C@H]2C(=O)N[C@@H](CN2Cc3ccc(cc3)B3O[C@@H]([C@H](O)[C@@H](C(O)CO)O3)[C@H](O)C2)C(=O)N[C@@H](CC(C)C)C(=O)N2C[C@H](O)C[C@H]2C(=O)N[C@@H](Cc2c[nH]c3ccccc23)C(=O)N[C@@H](CCNC[C@@H](O)[C@@H](O)[C@H](O)[C@H](O)C(O)CO)C(=O)N[C@@H](Cc2cn(CC(=O)O)c3ccccc23)C(=O)N1C (stereo partly drawn) [Example 1039] ({CH2CO}-Y[NMeA]NP[X23]L[Hyp]W[X13][Trp(1-CH2COOH)][NMeNle][NMeNle]LCG-NH2; thioether N-14) | 4.4
CCCC[C@H]1C(=O)N(C)[C@@H](CCCC)C(=O)N[C@@H](CC(C)C)C(=O)N[C@H](C(=O)NCC(N)=O)CSCC(=O)N[C@@H](Cc2ccc(O)cc2)C(=O)N(C)[C@@H](C)C(=O)N[C@@H](CC(N)=O)C(=O)N2CCC[C@H]2C(=O)N[C@@H](CN2Cc3ccccc3B3O[C@@H]([C@H](O)[C@@H](C(O)CO)O3)[C@H](O)C2)C(=O)N[C@@H](CC(C)C)C(=O)N2C[C@H](O)C[C@H]2C(=O)N[C@@H](Cc2c[nH]c3ccccc23)C(=O)N[C@@H](CCNC[C@@H](O)[C@@H](O)[C@H](O)[C@H](O)C(O)CO)C(=O)N[C@@H](Cc2cn(CC(=O)O)c3ccccc23)C(=O)N1C (stereo partly drawn) [Example 1038] ({CH2CO}-Y[NMeA]NP[X12]L[Hyp]W[X13][Trp(1-CH2COOH)][NMeNle][NMeNle]LCG-NH2; thioether N-14) | 6.8

Same assay, conditions: PD-L1-His 10 nM, PD-1-Ig 20 nM; read-out: HTRF IC50

Compound | IC50 [nM]
CCCC[C@H]1C(=O)N(C)[C@@H](CCCC)C(=O)N[C@@H](CC(C)C)C(=O)N[C@H](C(=O)NCC(N)=O)CSCC(=O)N[C@H]2Cc3ccc(cc3)OB(O)c3ccc(C)cc3CNCC[C@@H]3NC(=O)[C@H](Cc4c[nH]c5ccccc45)NC(=O)[C@@H]4C[C@@H](O)CN4C(=O)[C@H](CC(C)C)NC(=O)[C@H](CNCc4cc(C)ccc4B(O)OC(=O)Cn4cc(c5ccccc54)C[C@H](NC3=O)C(=O)N1C)NC(=O)[C@@H]1CCCN1C(=O)[C@H](CC(N)=O)NC(=O)[C@H](C)N(C)C2=O [Example 1021] | 5.3
CCCC[C@H]1C(=O)N(C)[C@@H](CCCC)C(=O)N[C@@H](CC(C)C)C(=O)N[C@H](C(=O)NCC(N)=O)CSCC(=O)N[C@@H](Cc2ccc(O)cc2)C(=O)N(C)[C@@H](C)C(=O)N[C@@H](CC(N)=O)C(=O)N2CCC[C@H]2C(=O)N[C@@H](CNCc2ccc(OC)c(B(O)O)c2)C(=O)N[C@@H](CC(C)C)C(=O)N2C[C@H](O)C[C@H]2C(=O)N[C@@H](Cc2c[nH]c3ccccc23)C(=O)N[C@@H](CCNCc2ccc(OC)c(B(O)O)c2)C(=O)N[C@@H](Cc2cn(CC(=O)O)c3ccccc23)C(=O)N1C [Example 1032] ({CH2CO}-Y[NMeA]NP[X10]L[Hyp]W[X11][Trp(1-CH2COOH)][NMeNle][NMeNle]LCG-NH2; thioether N-14) | 5.9
CCCC[C@H]1C(=O)N(C)[C@@H](CCCC)C(=O)N[C@@H](CC(C)C)C(=O)N[C@H](C(=O)NCC(N)=O)CSCC(=O)N[C@@H](Cc2ccc(O)cc2)C(=O)N(C)[C@@H](C)C(=O)N[C@@H](CC(N)=O)C(=O)N2CCC[C@H]2C(=O)N[C@@H](CNCc2ccc(OC)c(B(O)O)c2)C(=O)N[C@@H](CC(C)C)C(=O)N2C[C@H](O)C[C@H]2C(=O)N[C@@H](Cc2c[nH]c3ccccc23)C(=O)N[C@@H](CCN)C(=O)N[C@@H](Cc2cn(CC(=O)O)c3ccccc23)C(=O)N1C [Example 1023] ({CH2CO}-Y[NMeA]NP[X10]L[Hyp]W[Dab][Trp(1-CH2COOH)][NMeNle][NMeNle]LCG-NH2; thioether N-14) | 9.7
CCCC[C@H]1C(=O)N(C)[C@@H](CCCC)C(=O)N[C@@H](CC(C)C)C(=O)N[C@H](C(=O)NCC(N)=O)CSCC(=O)N[C@H]2Cc3ccc(cc3)OB(O)c3ccc(c(F)c3)CNCC[C@@H]3NC(=O)[C@H](Cc4c[nH]c5ccccc45)NC(=O)[C@@H]4C[C@@H](O)CN4C(=O)[C@H](CC(C)C)NC(=O)[C@H](CNCc4ccc(cc4F)B(O)OC(=O)Cn4cc(c5ccccc54)C[C@H](NC3=O)C(=O)N1C)NC(=O)[C@@H]1CCCN1C(=O)[C@H](CC(N)=O)NC(=O)[C@H](C)N(C)C2=O [Example 1028] | 4.6
CCCC[C@H]1C(=O)N(C)[C@@H](CCCC)C(=O)N[C@@H](CC(C)C)C(=O)N[C@H](C(=O)NCC(N)=O)CSCC(=O)N[C@H]2Cc3ccc(cc3)OB(O)c3ccc(nc3)CNCC[C@@H]3NC(=O)[C@H](Cc4c[nH]c5ccccc45)NC(=O)[C@@H]4C[C@@H](O)CN4C(=O)[C@H](CC(C)C)NC(=O)[C@H](CNCc4ccc(cn4)B(O)OC(=O)Cn4cc(c5ccccc54)C[C@H](NC3=O)C(=O)N1C)NC(=O)[C@@H]1CCCN1C(=O)[C@H](CC(N)=O)NC(=O)[C@H](C)N(C)C2=O [Example 1034] | 11
CCCC[C@H]1C(=O)N(C)[C@@H](CCCC)C(=O)N[C@@H](CC(C)C)C(=O)N[C@H](C(=O)NCC(N)=O)CSCC(=O)N[C@@H](Cc2ccc(O)cc2)C(=O)N(C)[C@@H](C)C(=O)N[C@@H](CC(N)=O)C(=O)N2CCC[C@H]2C(=O)N[C@H]2CNCc3ccccc3B(O)OC(=O)Cn3cc(c4ccccc43)C[C@H](NC(=O)[C@H](CCN)NC(=O)[C@H](Cc3c[nH]c4ccccc34)NC(=O)[C@@H]3C[C@@H](O)CN3C(=O)[C@H](CC(C)C)NC2=O)C(=O)N1C [Example 1003] ({CH2CO}-Y[NMeA]NP[X27]L[Hyp]W[Dab][Trp(1-CH2CO)][NMeNle][NMeNle]LCG-NH2; ester 5-10; thioether N-14) | 7.8
CCCC[C@H]1C(=O)N(C)[C@@H](CCCC)C(=O)N[C@@H](CC(C)C)C(=O)N[C@H](C(=O)NCC(N)=O)CSCC(=O)N[C@@H](Cc2ccc(O)cc2)C(=O)N(C)[C@@H](C)C(=O)N[C@@H](CC(N)=O)C(=O)N2CCC[C@H]2C(=O)N[C@@H](CNCc2ccc(B(O)O)cc2C(F)(F)F)C(=O)N[C@@H](CC(C)C)C(=O)N2C[C@H](O)C[C@H]2C(=O)N[C@@H](Cc2c[nH]c3ccccc23)C(=O)N[C@@H](CCN)C(=O)N[C@@H](Cc2cn(CC(=O)O)c3ccccc23)C(=O)N1C [Example 1025] ({CH2CO}-Y[NMeA]NP[X30]L[Hyp]W[Dab][Trp(1-CH2COOH)][NMeNle][NMeNle]LCG-NH2; thioether N-14) | 14
CCCC[C@H]1C(=O)N(C)[C@@H](CCCC)C(=O)N[C@@H](CC(C)C)C(=O)N[C@H](C(=O)NCC(N)=O)CSCC(=O)N[C@@H](Cc2ccc(O)cc2)C(=O)N(C)[C@@H](C)C(=O)N[C@@H](CC(N)=O)C(=O)N2CCC[C@H]2C(=O)N[C@H]2CNCc3ccc(cc3)B(O)OC(=O)Cn3cc(c4ccccc43)C[C@H](NC(=O)[C@H](CCN)NC(=O)[C@H](Cc3c[nH]c4ccccc34)NC(=O)[C@@H]3C[C@@H](O)CN3C(=O)[C@H](CC(C)C)NC2=O)C(=O)N1C [Example 1002] ({CH2CO}-Y[NMeA]NP[X32]L[Hyp]W[Dab][Trp(1-CH2CO)][NMeNle][NMeNle]LCG-NH2; ester 5-10; thioether N-14) | 3.5
CCCC[C@H]1C(=O)N(C)[C@@H](CCCC)C(=O)N[C@@H](CC(C)C)C(=O)N[C@H](C(=O)NCC(N)=O)CSCC(=O)N[C@@H](Cc2ccc(O)cc2)C(=O)N(C)[C@@H](C)C(=O)N[C@@H](CC(N)=O)C(=O)N2CCC[C@H]2C(=O)N[C@H]2CNCc3cc(Cl)ccc3B(O)OC(=O)Cn3cc(c4ccccc43)C[C@H](NC(=O)[C@H](CCN)NC(=O)[C@H](Cc3c[nH]c4ccccc34)NC(=O)[C@@H]3C[C@@H](O)CN3C(=O)[C@H](CC(C)C)NC2=O)C(=O)N1C [Example 1008] ({CH2CO}-Y[NMeA]NP[X4]L[Hyp]W[Dab][Trp(1-CH2CO)][NMeNle][NMeNle]LCG-NH2; ester 5-10; thioether N-14) | 6.7
CCCC[C@H]1C(=O)N(C)[C@@H](CCCC)C(=O)N[C@@H](CC(C)C)C(=O)N[C@H](C(=O)NCC(N)=O)CSCC(=O)N[C@@H](Cc2ccc(O)cc2)C(=O)N(C)[C@@H](C)C(=O)N[C@@H](CC(N)=O)C(=O)N2CCC[C@H]2C(=O)N[C@H]2CNCc3ccc(cc3F)B(O)OC(=O)Cn3cc(c4ccccc43)C[C@H](NC(=O)[C@H](CCN)NC(=O)[C@H](Cc3c[nH]c4ccccc34)NC(=O)[C@@H]3C[C@@H](O)CN3C(=O)[C@H](CC(C)C)NC2=O)C(=O)N1C [Example 1013] ({CH2CO}-Y[NMeA]NP[X3]L[Hyp]W[Dab][Trp(1-CH2CO)][NMeNle][NMeNle]LCG-NH2; ester 5-10; thioether N-14) | 3.7
